The values below come from patent publication US8377974B2 (Millennium Pharmaceuticals, Inc., priority 2004, dated 2013).

In the assay the target is T1, human plasma protein factor Xa (Homo sapiens, UniProt P00742).
T1 construct: measure proteolytic activity of the enzyme (factor Xa); purchased Haematologic Technologies (Essex Junction, Vt.); host or cells: human plasma
T1 sequence (P00742 235-488 limits assumed): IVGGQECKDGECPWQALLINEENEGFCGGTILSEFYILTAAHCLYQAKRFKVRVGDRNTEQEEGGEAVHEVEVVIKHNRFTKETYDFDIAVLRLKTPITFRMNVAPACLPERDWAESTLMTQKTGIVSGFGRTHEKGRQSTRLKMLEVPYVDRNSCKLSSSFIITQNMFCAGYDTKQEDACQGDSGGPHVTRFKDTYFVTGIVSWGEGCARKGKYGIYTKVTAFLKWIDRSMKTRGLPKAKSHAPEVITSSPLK
T1 sequence (P00742 41-179 partner limits assumed): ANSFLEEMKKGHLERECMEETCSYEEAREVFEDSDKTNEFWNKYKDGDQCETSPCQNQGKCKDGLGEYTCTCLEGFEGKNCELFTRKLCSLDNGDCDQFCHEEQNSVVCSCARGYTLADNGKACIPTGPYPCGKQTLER
Description: Factor Xa IC50 determination: cleavage of paranitroanilide substrate S-2765 in 96-well plates. In kind it is biochemical. Conditions: fXa 1 nM, S-2765 100 μM, Tris buffered saline pH 7.4, room temperature. Put shortly: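 Initial rates of S-2765 (100 μM final) cleavage, read at 405 nm for 2 min, fitted with a four-parameter equation to give IC50. Enzyme: 1 nM human plasma fXa, 5 min room-temperature preincubation with inhibitor (0.01 nM–10 μM) in 20 mM Tris, 150 mM NaCl, 5 mM CaCl2, 0.1% BSA, 5% DMSO, pH 7.4; duplicates.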
`N=C(c1ccc(-n2cc(CNC(=O)c3ccc(Cl)s3)cn2)cc1)N1CCCCC1` [Example 329, 5-Chloro-N-((1-(4-(imino(piperidin-1-yl)methyl)phenyl)-1H-pyrazol-4-yl)methyl)thiophene-2-carboxamide]: the IC50 is no more than 100 nM.

Compound `CCCN(C)C(=N)c1ccc(-c2cc(CN(C)C(=O)c3ccc(Cl)s3)on2)cc1` [Example 43, 5-Chloro-thiophene-2-carboxylic acid methyl-{3-[4-(N-methyl-N-propyl-carbamimidoyl)-phenyl]-isoxazol-5-ylmethyl}-amide] gave an IC50 of no less than 500 nM.

For the compound `CN1CCN=C1c1ccc(-n2cc(CNC(=O)c3ccc(Cl)s3)nn2)c(F)c1` [Example 324, 5-Chloro-N-((1-(2-fluoro-4-(1-methyl-4,5-dihydro-1H-imidazol-2-yl)phenyl)-1H-1,2,3-triazol-4-yl)methyl)thiophene-2-carboxamide], the IC50 was no more than 100 nM.

In the case of `COc1cc(C(=N)N(C)C)ccc1-c1cc(CNC(=O)c2ccc(Cl)s2)on1` [Example 118, 5-Chloro-thiophene-2-carboxylic acid {3-[4-(N,N-dimethyl-carbamimidoyl)-2-methoxy-phenyl]-isoxazol-5-ylmethyl}-amide], the IC50 is no more than 100 nM.

Compound `CN(C)C(=N)c1ccc(C2=NOC(CNC(=O)c3ccc(Cl)s3)C2)c(N2CCCCCC2)c1` (centres unmarked) [Example 90, 5-Chloro-thiophene-2-carboxylic acid {3-[2-azepan-1-yl-4-(N,N-dimethyl-carbamimidoyl)-phenyl]-4,5-dihydro-isoxazol-5-ylmethyl}-amide] gave a half-inhibitory concentration (IC50) of 100 to 500 nM.

`CN(C)C(=N)c1ccc(-c2nc(CNC(=O)c3ccc(Cl)s3)co2)cc1` [Example 338, N-((2-(4-(N,N-Dimethylcarbamimidoyl)phenyl)oxazol-4-yl)methyl)-5-chlorothiophene-2-carboxamide] gave an IC50 of no more than 100 nM.

The compound `O=C(NCC1CC(c2ccc(Nc3ccnc(Cl)c3)cc2)=NO1)c1ccc(Cl)s1` (centres unmarked) [Example 229, 5-Chloro-thiophene-2-carboxylic acid {3-[4-(2-chloro-pyridin-4-ylamino)-phenyl]-4,5-dihydro-isoxazol-5-ylmethyl}-amide] showed an IC50 of 100 to 500 nM.

As for `CC(C)Oc1cc(C(=N)N(C)C)ccc1-c1cc(CNC(=O)c2ccc(Cl)s2)on1` [Example 126, 5-Chloro-thiophene-2-carboxylic acid {3-[4-(N,N-dimethyl-carbamimidoyl)-2-isopropoxy-phenyl]-isoxazol-5-ylmethyl}-amide], the IC50 was no more than 100 nM.

`CN(C)C(=N)c1ccc(C2=NOC(CNC(=O)c3ccc(Cl)s3)C2)c(N2CCOCC2)c1` (centres unmarked) [Example 82, 5-Chloro-thiophene-2-carboxylic acid {3-[4-(N,N-dimethyl-carbamimidoyl)-2-morpholin-4-yl-phenyl]-4,5-dihydro-isoxazol-5-ylmethyl}-amide]: the half-inhibitory concentration (IC50) was no more than 100 nM.

Consider `CN(C)CCN(C)C(=N)c1ccc(C2=NOC(C)(CNC(=O)c3ccc(Cl)s3)C2)cc1` (centres unmarked) [Example 65, 5-Chloro-thiophene-2-carboxylic acid (3-{4-[N-(2-dimethylamino-ethyl)-N-methyl-carbamimidoyl]-phenyl}-5-methyl-4,5-dihydro-isoxazol-5-ylmethyl)-amide], for which the IC50 is no more than 100 nM.

In the case of `N#Cc1ccc(-c2cc(CNC(=O)c3ccc(Cl)s3)on2)cc1` [Example 20, 5-Chloro-thiophene-2-carboxylic acid [3-(4-cyano-phenyl)-isoxazol-5-ylmethyl]-amide], the IC50 was no more than 100 nM.

On to `CNC(=N)c1ccc(-c2cc(CNC(=O)c3ccc(Cl)s3)on2)cc1` [Example 34, 5-Chloro-thiophene-2-carboxylic acid {3-[4-(N-methylcarbamimidoyl)-phenyl]-isoxazol-5-ylmethyl}-amide], for which the IC50 was no less than 500 nM.

With `N=C(c1ccc(C2=NOC(CNC(=O)c3ccc(Cl)s3)C2)c(N2CCOCC2)c1)N1CCCC1` (centres unmarked) [Example 84, 5-Chloro-thiophene-2-carboxylic acid {3-[4-(imino-pyrrolidin-1-yl-methyl)-2-morpholin-4-yl-phenyl]-4,5-dihydro-isoxazol-5-ylmethyl}-amide], the IC50 was 100 to 500 nM.

With `CN(C)C(=N)c1ccc(-n2cc(CNC(=O)c3ccc(Cl)s3)nn2)c(F)c1` [Example 320, N-((1-(4-(N,N-Dimethylcarbamimidoyl)-2-fluorophenyl)-1H-1,2,3-triazol-4-yl)methyl)-5-chlorothiophene-2-carboxamide], the IC50 was no more than 100 nM.

As to `CCN1CCC(C2=NOC(CNC(=O)c3ccc(Cl)s3)C2)CC1` (centres unmarked) [Example 169, 5-Chloro-thiophene-2-carboxylic acid [3-(1-ethyl-piperidin-4-yl)-4,5-dihydro-isoxazol-5-ylmethyl]-amide], the IC50 is no less than 500 nM.

For `CCN1CCC(c2cc(CNC(=O)c3ccc(Cl)s3)on2)CC1` [Example 177, 5-Chloro-thiophene-2-carboxylic acid [3-(1-ethyl-piperidin-4-yl)-isoxazol-5-ylmethyl]-amide], the concentration for half-maximal inhibition (IC50) is no less than 500 nM.

`N=C(c1ccc(-n2cc(CNC(=O)c3ccc(Cl)s3)cn2)cc1)N1CCCC1` [Example 328, 5-Chloro-N-((1-(4-(imino(pyrrolidin-1-yl)methyl)phenyl)-1H-pyrazol-4-yl)methyl)thiophene-2-carboxamide]: the IC50 is no more than 100 nM.

`Nc1ccccc1-c1ccc(C2=NOC(CNC(=O)c3ccc(Cl)s3)C2)cc1` (centres unmarked) [Example 186, 5-Chloro-thiophene-2-carboxylic acid [3-(2′-amino-biphenyl-4-yl)-4,5-dihydro-isoxazol-5-ylmethyl]-amide] showed an IC50 of 100 to 500 nM.

`N=C(c1ccc(C2=NOC(CNC(=O)c3ccc(Cl)s3)C2)cc1)N1CCCCC1` (centres unmarked) [Example 11, 5-Chloro-thiophene-2-carboxylic acid {3-[4-(imino-piperidin-1-yl-methyl)-phenyl]-4,5-dihydro-isoxazol-5-ylmethyl}-amide] returned an IC50 of 100 to 500 nM.

As for `CN1CCN=C1c1ccc(C2=NOC(CNC(=O)c3ccc(Cl)s3)C2)cc1` (centres unmarked) [Example 9, 5-Chloro-thiophene-2-carboxylic acid {3-[4-(1-methyl-4,5-dihydro-1H-imidazol-2-yl)-phenyl]-4,5-dihydro-isoxazol-5-ylmethyl}-amide], the IC50 was no more than 100 nM.

For `CN(Cc1cc(-c2ccc(C3=NCCN3C)cc2)no1)C(=O)c1ccc(Cl)s1` [Example 36, 5-Chloro-thiophene-2-carboxylic acid methyl-{3-[4-(1-methyl-4,5-dihydro-1H-imidazol-2-yl)-phenyl]-isoxazol-5-ylmethyl}-amide], the 50% inhibitory concentration (IC50) is no less than 500 nM.

The compound `O=C(NCC1CC(c2ccc(N3CCSCC3=O)cc2)=NO1)c1ccc(Cl)s1` (centres unmarked) [Example 244, 5-Chloro-thiophene-2-carboxylic acid {3-[4-(3-oxo-thiomorpholin-4-yl)-phenyl]-4,5-dihydro-isoxazol-5-ylmethyl}-amide] showed an IC50 of 100 to 500 nM.

In turn, `COC[C@H]1CCCN1C(=O)c1ccc(C2=NOC(CNC(=O)c3ccc(Cl)s3)C2)cc1` (some centres unmarked) [Example 398] came in with an IC50 of 100 to 500 nM.

`COCCN(C)C(=N)c1ccc(C2=NOC(C)(CNC(=O)c3ccc(Cl)s3)C2)cc1` (centres unmarked) [Example 66, 5-Chloro-thiophene-2-carboxylic acid (3-{-4-[N-(2-methoxy-ethyl)-N-methyl-carbamimidoyl]-phenyl}-5-methyl-4,5-dihydro-isoxazol-5-ylmethyl)-amide] came in with an IC50 of 100 to 500 nM.

Compound `O=C(NCc1cn(-c2ccc(N3CCOCCC3=O)cc2)nn1)c1ccc(Cl)s1` [Example 303, 5-Chloro-N-((1-(4-(5-oxo-1,4-oxazepan-4-yl)phenyl)-1H-1,2,3-triazol-4-yl)methyl)thiophene-2-carboxamide] had an IC50 of no more than 100 nM.

On to `O=C(NCc1cn(-c2ccc(-n3ccccc3=O)cc2F)nn1)c1ccc(Cl)s1` [Example 305, 5-Chloro-N-((1-(2-fluoro-4-(2-oxopyridin-1(2H)-yl)phenyl)-1H-1,2,3-triazol-4-yl)methyl)thiophene-2-carboxamide], for which the IC50 was no more than 100 nM.

With `CCOc1cc(C(=N)N(C)C)ccc1C1=NOC(CNC(=O)c2ccc(Cl)s2)C1` (centres unmarked) [Example 106, 5-Chloro-thiophene-2-carboxylic acid {3-[4-(N,N-dimethyl-carbamimidoyl)-2-ethoxy-phenyl]-4,5-dihydro-isoxazol-5-ylmethyl}-amide], the IC50 is no more than 100 nM.

Consider `CCOC(=O)C1CCN(C(=N)c2ccc(-c3nc(CNC(=O)c4ccc(Cl)s4)co3)cc2)CC1` [Example 342, Ethyl 1-((4-(4-((2-chlorothiophene-5-carboxamido)methyl)oxazol-2-yl)phenyl)(imino)methyl)piperidine-4-carboxylate], for which the IC50 is 100 to 500 nM.

With `CN(C)CCN(C)C(=N)c1ccc(C2=NOC(CNC(=O)c3ccc(Cl)s3)C2)cc1` (centres unmarked) [Example 16, 5-Chloro-thiophene-2-carboxylic acid (3-{4-[N-(2-dimethylamino-ethyl)-N-methyl-carbamimidoyl]-phenyl}-4,5-dihydro-isoxazol-5-ylmethyl)-amide], the IC50 was no more than 100 nM.

As for `O=Cc1ccccc1-c1ccc(C2=NOC(CNC(=O)c3ccc(Cl)s3)C2)cc1` (centres unmarked) [Example 183, 5-Chloro-thiophene-2-carboxylic acid [3-(2′-formyl-biphenyl-4-yl)-4,5-dihydro-isoxazol-5-ylmethyl]-amide], the IC50 was no less than 500 nM.

For `O=C(NCC1CC(c2ccc(C(=O)N3CC=CC3)cc2)=NO1)c1ccc(Cl)s1` (centres unmarked) [Example 397, 5-Chloro-N-((3-(4-(2,5-dihydro-1H-pyrrole-1-carbonyl)phenyl)-4,5-dihydroisoxazol-5-yl)methyl)thiophene-2-carboxamide], the IC50 was no more than 100 nM.

With `O=C(NCc1cc(-c2ccc(Nc3ccccn3)cc2)no1)c1ccc(Cl)s1` [Example 252, 5-Chloro-thiophene-2-carboxylic acid {3-[4-(pyridin-2-ylamino)-phenyl]-isoxazol-5-ylmethyl}-amide], the IC50 is no less than 500 nM.
